How the values were obtained:
[1] = system: S. aureus ATCC 106414 (VISA); experiment: MIC, microdilution method (9.1); assay type: cell-based, Staphylococcus aureus; settings: read after 18 h
Procedure: (§1) The microdilution method recommended by the Clinical and Laboratory Standard Institute [M07-A8, Vol. 29, No. 2] was used. The activity of indolic compounds was tested against 29 bacterial strains belonging to 17 different species and 12 different genera (Staphylococcus, Streptococcus, Enterococcus, Listeria, Bacillus, Haemophilus, Escherichia, Klebsiella, Enterobacter, Serratia, Pseudomonas, and Acinetobacter). Bacterial inocula were prepared in Mueller Hinton broth (MH2, bioMérieux, Marcy L'Etoile, France), supplemented with 10% sheep blood for fastidious species (i.e., Streptococcus pneumoniae and Haemophilus influenzae). They were dispensed in 96 well microtiter plates (5×10^5 CFU/ml of final inoculum). Indolic compounds were added to the wells as to obtain two-fold serial concentrations (0.50-128 mg/L of final concentrations). Plates were incubated at 37° C. in ambient air, or at 37° C. in 5% CO2 enriched atmosphere for fastidious species. […] Drug-free cultures served as growth controls. Cultures receiving gentamicin, ciprofloxacin or cefotaxime served as positive controls.

[2] = system: S. aureus ATCC 25923; experiment: MIC, microdilution method (9.1); assay type: cell-based, Staphylococcus aureus; settings: read after 18 h
Procedure: as §1

[3] = system: S. aureus ATCC 29213; experiment: MIC, microdilution method (9.1); assay type: cell-based, Staphylococcus aureus; settings: read after 18 h
Procedure: as §1

[4] = system: S. aureus ATCC 33592 (MRSA); experiment: MIC, microdilution method (9.1); assay type: cell-based, Staphylococcus aureus; settings: read after 18 h
Procedure: as §1

[5] = system: S. aureus ATCC 6538; experiment: MIC, microdilution method (9.1); assay type: cell-based, Staphylococcus aureus; settings: read after 18 h
Procedure: as §1

[6] = system: S. aureus ATCC 9144; experiment: MIC, microdilution method (9.1); assay type: cell-based, Staphylococcus aureus; settings: read after 18 h
Procedure: as §1

[7] = system: S. aureus CIP 103428; experiment: MIC, microdilution method (9.1); assay type: cell-based, Staphylococcus aureus; settings: read after 18 h
Procedure: as §1

[8] = system: S. aureus CIP 65.25 (MRSA); experiment: MIC, microdilution method (9.1); assay type: cell-based, Staphylococcus aureus; settings: read after 18 h
Procedure: as §1

[9] = system: S. aureus CIP 65.6; experiment: MIC, microdilution method (9.1); assay type: cell-based, Staphylococcus aureus; settings: read after 18 h
Procedure: as §1

[10] = system: S. aureus SA-1199B; experiment: MIC, microdilution method (9.1); assay type: cell-based, Staphylococcus aureus; settings: S. aureus SA-1199B; read after 18 h
Procedure: as §1

[11] = system: S. epidermidis ATCC 12228; experiment: MIC, microdilution method (9.1); assay type: cell-based, Staphylococcus epidermidis; settings: read after 18 h
Procedure: as §1

[12] = system: S. epidermidis CIP 103627; experiment: MIC, microdilution method (9.1); assay type: cell-based, Staphylococcus epidermidis; settings: read after 18 h
Procedure: as §1

[13] = system: S. epidermidis CIP 81.55; experiment: MIC, microdilution method (9.1); assay type: cell-based, Staphylococcus epidermidis; settings: read after 18 h
Procedure: as §1

[14] = system: S. pneumoniae ATCC 6303; experiment: MIC, microdilution method (9.1); assay type: cell-based, Streptococcus pneumoniae; settings: 10% sheep blood, 5% CO2, 18 h
Procedure: as §1

[15] = system: S. agalactiae (group B) ATCC 12400; experiment: MIC, microdilution method (9.1); assay type: cell-based, Streptococcus agalactiae; settings: 18 h
Procedure: as §1

[16] = system: S. pyogenes (group A) CIP 104226; experiment: MIC, microdilution method (9.1); assay type: cell-based, Streptococcus pyogenes; settings: 18 h
Procedure: as §1

[17] = system: S. mitis CIP 103335; experiment: MIC, microdilution method (9.1); assay type: cell-based, Streptococcus mitis; settings: 18 h
Procedure: as §1

[18] = system: E. faecium CIP 54.32; experiment: MIC, microdilution method (9.1); assay type: cell-based, Enterococcus faecium; settings: 18 h
Procedure: as §1

[19] = system: E. faecalis ATCC 29212; experiment: MIC, microdilution method (9.1); assay type: cell-based, Enterococcus faecalis; settings: 18 h
Procedure: as §1

[20] = system: Acinetobacter baumanii ATCC 19606; experiment: MIC, microdilution method (9.1); assay type: cell-based; settings: 18 h
Procedure: as §1

[21] = system: Bacillus subtilis CIP 5262; experiment: MIC, microdilution method (9.1); assay type: cell-based; settings: 18 h
Procedure: as §1

[22] = system: Klebsiella pneumoniae API ATCC 35657; experiment: MIC, microdilution method (9.1); assay type: cell-based; settings: 18 h
Procedure: as §1

[23] = system: Listeria innocua CIP 80.11; experiment: MIC, microdilution method (9.1); assay type: cell-based; settings: 18 h
Procedure: as §1

[24] = system: Pseudomonas aeruginosa CIP 5933; experiment: MIC, microdilution method (9.1); assay type: cell-based; settings: 18 h
Procedure: as §1

[25] = system: 29 bacterial strains belonging to 17 different species; experiment: MIC determination, overall statements on the bacterial panel; assay type: cell-based; settings: summary of MIC results
Procedure: as §1

## tert-Butyl (2-(p-bromo)benzamido-2-(5-bromo-1H-indol-3-yl)ethyl)carbamate [Compound 8a]
[1]
  MIC: >32 µg/mL
[2]
  MIC: >128(>32) mg/L
[3]
  MIC: >32 µg/mL
[4]
  MIC: >32 µg/mL
[5]
  MIC: >32 µg/mL
[6]
  MIC: >32 µg/mL
[7]
  MIC: >32 µg/mL
[8]
  MIC: >32 µg/mL
[9]
  MIC: >32 µg/mL
[10]
  MIC: >32 µg/mL
[11]
  MIC: >32 µg/mL
[12]
  MIC: >32 µg/mL
[13]
  MIC: >32 µg/mL
[14]
  MIC: 128 µg/mL
[15]
  MIC: 64 µg/mL
[16]
  MIC: >128 µg/mL
[17]
  MIC: >128 µg/mL
[18]
  MIC: >128 µg/mL
[19]
  MIC: >128 µg/mL
[20]
  MIC: >128(>32) mg/L
[21]
  MIC: >128 µg/mL
[22]
  MIC: 64 µg/mL
[23]
  MIC: >128 µg/mL
[24]
  MIC: >128(>32) mg/L
[25]
  intrinsic antibacterial activity (in words): lack of intrinsic antibacterial activity
